{
  "source": "patent US10463670B2",
  "about": "“Use of non-peptide NK1 antagonists in a predetermined dose for the treatment of cancer” (SERVICIO ANDALUZ DE SALUD, priority 2013, dated 2019)",
  "key": {"[1]": {"test_system": "human lung cancer; reference HCC-44", "test": "Lung cancer HCC-44 tumours in nude mice, Cisplatin alone or with Aprepitant", "type": "in vivo", "details": "Cisplatin 8 mg/kg on days 1 and 7, alone", "method": "Immunocompromised female mice, 5-6 weeks of age were used, nu/nu Balb/c nude mice, provided by Harlan Iberica Barcelona (Spain). They were kept at 24° C. and in sterile conditions with food and water “ad libitum”. […] The tumour size was measured and the mice were evaluated for their state of health and weight daily. […] One of the groups was treated with 200 μl of placebo (control group) and the eight remaining groups with doses of 10 (group 1), 20 (group 2), 30 (group 3), 40 (group 4), 50 (group 5), 60 (group 6), 70 (group 7) and 80 (group 8) mg per kilogram of weight and day of the NK1 receptor antagonist Aprepitant. 3 animals were treated per group, during 28 days. All the mice were sacrificed at the end of the experiment. […] Immunocompromised female mice, 5-6 weeks of age were used, in the same conditions as explained in example 1. […] The tumour size was measured and the mice were evaluated for their state of health and weight daily. […] One of the groups was treated with Cisplatin at 8 mg per kilogram of weight at single doses on days 1 and 7 of the experiment (control group) and the eight remaining groups with the same treatment as the control group and the doses of 1 (group 1), 3 (group 2), 5 (group 3), 6 (group 4), 7 (group 5), 8 (group 6), 9 (group 7) and 10 (group 8) mg per kilogram of weight and day, of the NK1 receptor antagonist Aprepitant. […]"}, "[2]": {"test_system": "human glioma; reference GAMG", "test": "Glioma GAMG tumours in nude mice, Cisplatin alone or with Aprepitant", "type": "in vivo", "details": "Cisplatin 8 mg/kg on days 1 and 7, alone", "method": "(§1) Immunocompromised female mice, 5-6 weeks of age were used, nu/nu Balb/c nude mice, provided by Harlan Iberica Barcelona (Spain). They were kept at 24° C. and in sterile conditions with food and water “ad libitum”. […] The tumour size was measured and the mice were evaluated for their state of health and weight daily. […] One of the groups was treated with 200 μl of placebo (control group) and the eight remaining groups with doses of 10 (group 1), 20 (group 2), 30 (group 3), 40 (group 4), 50 (group 5), 60 (group 6), 70 (group 7) and 80 (group 8) mg per kilogram of weight and day of the NK1 receptor antagonist Aprepitant. 3 animals were treated per group, during 28 days. All the mice were sacrificed at the end of the experiment. […] Immunocompromised female mice, 5-6 weeks of age were used, in the same conditions as explained in example 1. […] The tumour size was measured and the mice were evaluated for their state of health and weight daily. […] One of the groups was treated with two single doses of Cisplatin, of 8 mg per kilogram of weight, on days 1 and 7 of the experiment (control group). The eight remaining groups were treated with the same treatment as the control group and the doses of 1 (group 1), 3 (group 2), 5 (group 3), 6 (group 4), 7 (group 5), 8 (group 6), 9 (group 7) and 10 (group 8) mg per kilogram of weight and day, of the NK1 receptor antagonist Aprepitant. […]"}, "[3]": {"test_system": "human fibrosarcoma; reference HT-1080", "test": "Fibrosarcoma HT-1080 tumours in nude mice, Cisplatin alone or with Aprepitant", "type": "in vivo", "details": "Cisplatin 8 mg/kg on days 1 and 7, alone", "method": "as §1"}, "[4]": {"test_system": "human melanoma; reference MEL-HO", "test": "Melanoma MEL-HO tumours in nude mice, Cisplatin alone or with Aprepitant", "type": "in vivo", "details": "Cisplatin 8 mg/kg on days 1 and 7, alone", "method": "as §1"}, "[5]": {"test_system": "human neuroblastoma; reference KELLY", "test": "Neuroblastoma KELLY tumours in nude mice, Cisplatin alone or with Aprepitant", "type": "in vivo", "details": "Cisplatin 8 mg/kg on days 1 and 7, alone", "method": "as §1"}, "[6]": {"test_system": "human lymphoma; reference BC-1", "test": "Lymphoma BC-1 tumours in nude mice, Cisplatin alone or with Aprepitant", "type": "in vivo", "details": "Cisplatin 8 mg/kg on days 1 and 7, alone", "method": "as §1"}, "cell proliferation": {"test_system": "cell proliferation", "details": "Singh et al. 2000; Bigioni et al. 2005; cited from earlier work"}},
  "note": "Where a SMILES comes first, the peptide text is derived from it. Bridges are numbered along the chain shown (N, C = ends). [ ]: non-standard residue; d: D form. The star is where a group is joined. NH(β-GlcNAc) = CC(=O)N[C@@H]1[C@@H](O)[C@H](O)[C@@H](CO)O[C@H]1N*; Dap = NC[C@H](N)C(=O)O",
  "data": [
    {"molecule": "N.N.[Cl][Pt][Cl]", "note": "[Cisplatin]", "values": [
      {"measurement": "Tumour size (mean volume of the tumour)", "setting": "[1]; 7 days", "value": "105 ± 4", "unit": "cubic millimeters"},
      {"measurement": "Tumour size (mean volume of the tumour)", "setting": "[1]; 14 days", "value": "70 ± 7", "unit": "cubic millimeters"},
      {"measurement": "Tumour size (mean volume of the tumour)", "setting": "[2]; 7 days", "value": "115 ± 7", "unit": "cubic millimeters"},
      {"measurement": "Tumour size (mean volume of the tumour)", "setting": "[2]; 14 days", "value": "85 ± 6", "unit": "cubic millimeters"},
      {"measurement": "Tumour size (mean volume of the tumour)", "setting": "[3]; 7 days", "value": "95 ± 5", "unit": "cubic millimeters"},
      {"measurement": "Tumour size (mean volume of the tumour)", "setting": "[3]; 14 days", "value": "65 ± 5", "unit": "cubic millimeters"},
      {"measurement": "Tumour size (mean volume of the tumour)", "setting": "[4]; 7 days", "value": "105 ± 6", "unit": "cubic millimeters"},
      {"measurement": "Tumour size (mean volume of the tumour)", "setting": "[4]; 14 days", "value": "75 ± 6", "unit": "cubic millimeters"},
      {"measurement": "Tumour size (mean volume of the tumour)", "setting": "[5]; 7 days", "value": "95 ± 8", "unit": "cubic millimeters"},
      {"measurement": "Tumour size (mean volume of the tumour)", "setting": "[5]; 14 days", "value": "60 ± 8", "unit": "cubic millimeters"},
      {"measurement": "Tumour size (mean volume of the tumour)", "setting": "[6]; 7 days", "value": "85 ± 6", "unit": "cubic millimeters"},
      {"measurement": "Tumour size (mean volume of the tumour)", "setting": "[6]; 14 days", "value": "50 ± 3", "unit": "cubic millimeters"}
    ]},
    {"molecule": "CC(=O)N[C@@H]1[C@@H](O)[C@H](O)[C@@H](CO)O[C@H]1NC(=O)C[C@@H]1NC(=O)[C@H](CC(C)C)NC(=O)[C@@H]2CNC(=O)C[C@H](NC1=O)C(=O)N[C@@H](Cc1c[nH]c3ccccc13)C(=O)N[C@@H](Cc1ccccc1)C(=O)N2", "note": "[MEN 11420, Nepadutant] (cyclo(D(NH(β-GlcNAc))DWF[Dap]L); lactam 2-5)", "values": [
      {"measurement": "Blocking cell proliferation", "setting": "cell proliferation", "value": "efficacy thereof in blocking cell proliferation"}
    ]},
    {"molecule": "Cc1ccc(CC(=O)N(C)[C@H](Cc2ccc3ccccc3c2)C(=O)N[C@@H]2CCCC[C@@H]2NC(=O)c2c[nH]c3ccccc23)cc1", "note": "[MEN 11467]", "values": [
      {"measurement": "Blocking cell proliferation", "setting": "cell proliferation", "value": "efficacy thereof in blocking cell proliferation"}
    ]},
    {"molecule": "CC(=O)NC1(c2ccccc2)CCN(CC[C@H](CN(C)C(=O)c2ccccc2)c2ccc(Cl)c(Cl)c2)CC1", "note": "[SR 48968]", "values": [
      {"measurement": "Blocking cell proliferation", "setting": "cell proliferation", "value": "efficacy thereof in blocking cell proliferation"}
    ]}
  ]
}
